Values quoted from earlier work in US20100183739A1, “Treatment and prevention of systemic bacterial infections in plants using antimicrobial metal compositions” (priority 2009, published 2010).

Test system: bacteria
Conditions: Appl Environ Microbiol. 2008; 74(7): 2171-2178

## [Ag+] [silver ion]
  silver ion concentration for inhibition of bacterial growth: below 5 ppm
